Test results from paper PMC8067737, “Synthesis and Biological Evaluation of Coumarin-Linked 4-Anilinomethyl-1,2,3-Triazoles as Potent Inhibitors of Carbonic Anhydrases IX and XIII Involved in Tumorigenesis” (Metabolites, 2021).
pKi: −log10 of the molar value. Read-outs that look alike come from different tables or passages of the source.

How the values were obtained:
hCA XIII = hCA XIII (Homo sapiens, UniProt Q8N1Q1); assay: CA catalyzed CO2 hydration, stopped flow assay, hCA XIII; settings: Ki (nM) hCA XIII, recombinant enzyme; stopped flow technique; mean from 3 different assays, errors ±5–10%
Chain of hCA XIII (Q8N1Q1 whole entry): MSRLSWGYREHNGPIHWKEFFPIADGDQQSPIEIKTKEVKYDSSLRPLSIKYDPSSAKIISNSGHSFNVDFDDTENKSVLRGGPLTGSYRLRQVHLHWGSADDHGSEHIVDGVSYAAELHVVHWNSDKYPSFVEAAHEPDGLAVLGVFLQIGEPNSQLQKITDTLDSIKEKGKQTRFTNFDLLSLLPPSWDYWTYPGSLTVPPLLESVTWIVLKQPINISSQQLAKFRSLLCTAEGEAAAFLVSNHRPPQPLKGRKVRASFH
Description: (§1) An SX.18V-R Applied Photophysics (Oxford, UK) stopped flow instrument has been used to assay the CA catalyzed CO2 hydration activity [26]. […] The inhibition constants were obtained by non-linear least squares methods using the Cheng-Prusoff equation, as reported earlier, and represent the mean from at least three different determinations.

hCA I = hCA I (Homo sapiens, UniProt P00915); assay: CA catalyzed CO2 hydration, stopped flow assay, hCA I
Chain of hCA I (P00915 whole entry): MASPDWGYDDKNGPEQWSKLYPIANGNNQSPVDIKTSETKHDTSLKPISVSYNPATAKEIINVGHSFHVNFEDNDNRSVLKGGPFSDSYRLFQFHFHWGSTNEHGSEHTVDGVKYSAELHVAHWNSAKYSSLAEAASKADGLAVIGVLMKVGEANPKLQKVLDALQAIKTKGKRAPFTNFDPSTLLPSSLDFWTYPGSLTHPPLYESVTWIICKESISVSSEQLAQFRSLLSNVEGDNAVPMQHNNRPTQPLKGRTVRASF
Description: as §1

hCA II = hCA II (Homo sapiens, UniProt P00918); assay: CA catalyzed CO2 hydration, stopped flow assay, hCA II
Description: as §1

hCA IX = hCA IX (Homo sapiens, UniProt Q16790); assay: CA catalyzed CO2 hydration, stopped flow assay, hCA IX; settings: recombinant enzyme, stopped flow technique, mean from 3 different assays, errors ±5–10%
Description: as §1

Compound	Ki (hCA XIII)	pKi (hCA I)	pKi (hCA II)	Ki (hCA IX; Ki (nM) hCA IX)	melting point	Ki (hCA IX; read-out: Ki (nM) hCA IX)
Cc1cccc(NCc2cn(-c3ccc4oc(=O)ccc4c3)nn2)c1C [Compound 6r, 6-(4-(((2,3-dimethylphenyl)amino)methyl)-1H-1,2,3-triazol-1-yl)-2H-chromen-2-one]	550 nM	< 4.30	< 4.30	462 nM	220 to 222 °C	–
O=c1ccc2cc(-n3cc(CNc4ccc(Br)cc4)nn3)ccc2o1 [Compound 6e, 6-(4-(((4-bromophenyl)amino)methyl)-1H-1,2,3-triazol-1-yl)-2H-chromen-2-one]	883 nM	< 4.30	< 4.30	< 50 nM	–	36.3 nM
O=c1ccc2cc(-n3cc(CNc4cc(F)cc(F)c4)nn3)ccc2o1 [Compound 6s, 6-(4-(((3,5-difluorophenyl)amino)methyl)-1H-1,2,3-triazol-1-yl)-2H-chromen-2-one]	664 nM	< 4.30	< 4.30	90.9 nM	204 to 206 °C	–
Cc1cc(C)c(NCc2cn(-c3ccc4oc(=O)ccc4c3)nn2)c(C)c1 [Compound 6g, 6-(4-((mesitylamino)methyl)-1H-1,2,3-triazol-1-yl)-2H-chromen-2-one]	903 nM	< 4.30	< 4.30	64.8 nM	157 to 159 °C	–
O=c1ccc2cc(-n3cc(CNc4cccc(C(F)(F)F)c4)nn3)ccc2o1 [Compound 6k]	6430 nM	< 4.30	< 4.30	69.1 nM	246 to 248 °C	–
Cc1cccc(NCc2cn(-c3ccc4oc(=O)ccc4c3)nn2)c1 [Compound 6m, 6-(4-((m-tolylamino)methyl)-1H-1,2,3-triazol-1-yl)-2H-chromen-2-one]	795 nM	< 4.30	< 4.30	80.1 nM	220 to 223 °C	–
O=c1ccc2cc(-n3cc(CNc4ccc(Oc5ccccc5)cc4)nn3)ccc2o1 [Compound 6h, 6-(4-(((4-phenoxyphenyl)amino)methyl)-1H-1,2,3-triazol-1-yl)-2H-chromen-2-one]	905 nM	< 4.30	< 4.30	73 nM	172 to 174 °C	–
O=c1ccc2cc(-n3cc(CNc4ccccc4F)nn3)ccc2o1 [Compound 6t, 6-(4-(((2-fluorophenyl)amino)methyl)-1H-1,2,3-triazol-1-yl)-2H-chromen-2-one]	6030 nM	< 4.30	< 4.30	643 nM	230 to 232 °C	–
Cc1cc(C)cc(NCc2cn(-c3ccc4oc(=O)ccc4c3)nn2)c1 [Compound 6n, 6-(4-(((3,5-dimethylphenyl)amino)methyl)-1H-1,2,3-triazol-1-yl)-2H-chromen-2-one]	703 nM	< 4.30	< 4.30	89.3 nM	191 to 194 °C	–
O=c1ccc2cc(-n3cc(CNc4cccc([N+](=O)[O-])c4)nn3)ccc2o1 [Compound 6i, 6-(4-(((3-nitrophenyl)amino)methyl)-1H-1,2,3-triazol-1-yl)-2H-chromen-2-one]	896 nM	< 4.30	< 4.30	85.7 nM	230 to 234 °C	–
O=c1ccc2cc(-n3cc(CNc4ccc(F)cc4)nn3)ccc2o1 [Compound 6l, 6-(4-(((4-fluorophenyl)amino)methyl)-1H-1,2,3-triazol-1-yl)-2H-chromen-2-one]	840 nM	< 4.30	< 4.30	86.1 nM	210 to 212 °C	–
O=c1ccc2cc(-n3cc(CNc4cccc(Cl)c4)nn3)ccc2o1 [Compound 6o, 6-(4-(((3-chlorophenyl)amino)methyl)-1H-1,2,3-triazol-1-yl)-2H-chromen-2-one]	95.4 nM	< 4.30	< 4.30	92.7 nM	134 to 137 °C	–
Cc1ccc(NCc2cn(-c3ccc4oc(=O)ccc4c3)nn2)cc1 [Compound 6a, 6-(4-((p-tolylamino)methyl)-1H-1,2,3-triazol-1-yl)-2H-chromen-2-one]	92.6 nM	< 4.30	< 4.30	48.4 nM	150 to 152 °C	–
O=c1ccc2cc(-n3cc(CNc4ccc(Cl)cc4[N+](=O)[O-])nn3)ccc2o1 [Compound 6q, 6-(4-(((4-chloro-2-nitrophenyl)amino)methyl)-1H-1,2,3-triazol-1-yl)-2H-chromen-2-one]	96.7 nM	< 4.30	< 4.30	96.4 nM	213 to 215 °C	–
O=c1ccc2cc(-n3cc(CNc4cccc(Br)c4)nn3)ccc2o1 [Compound 6j, 6-(4-(((3-bromophenyl)amino)methyl)-1H-1,2,3-triazol-1-yl)-2H-chromen-2-one]	91.8 nM	< 4.30	< 4.30	305 nM	133 to 136 °C	–
COc1ccc(NCc2cn(-c3ccc4oc(=O)ccc4c3)nn2)cc1 [Compound 6c, 6-(4-(((4-methoxyphenyl)amino)methyl)-1H-1,2,3-triazol-1-yl)-2H-chromen-2-one]	950 nM	< 4.30	< 4.30	73.3 nM	140 to 142 °C	–
CC(C)c1ccc(NCc2cn(-c3ccc4oc(=O)ccc4c3)nn2)cc1 [Compound 6f, 6-(4-(((4-isopropylphenyl)amino)methyl)-1H-1,2,3-triazol-1-yl)-2H-chromen-2-one]	8150 nM	< 4.30	< 4.30	45 nM	152 to 155 °C	–
O=c1ccc2cc(-n3cc(CNc4ccccc4)nn3)ccc2o1 [Compound 6b, 6-(4-((phenylamino)methyl)-1H-1,2,3-triazol-1-yl)-2H-chromen-2-one]	90.1 nM	< 4.30	< 4.30	60.8 nM	159 to 161 °C	–
O=c1ccc2cc(-n3cc(CNc4ccccc4I)nn3)ccc2o1 [Compound 6p, 6-(4-(((2-iodophenyl)amino)methyl)-1H-1,2,3-triazol-1-yl)-2H-chromen-2-one]	594 nM	< 4.30	< 4.30	574 nM	165 to 167 °C	–
O=c1ccc2cc(-n3cc(CNc4ccc(Cl)cc4)nn3)ccc2o1 [Compound 6d, 6-(4-(((4-chlorophenyl)amino)methyl)-1H-1,2,3-triazol-1-yl)-2H-chromen-2-one]	898 nM	< 4.30	< 4.30	152 nM	136 to 138 °C	–
